Here are results for two compounds from publication PMC8451722, “Staphylococcus aureus Depends on Eap Proteins for Preventing Degradation of Its Phenol-Soluble Modulin Toxins by Neutrophil Serine Proteases” (Frontiers in Immunology, 2021).

One series deals with T1, human FPR2/ALX (Homo sapiens, UniProt P25090).
T1 construct: expressed in transfected cells; host or cells: HL60
T1 sequence (P25090 1-351): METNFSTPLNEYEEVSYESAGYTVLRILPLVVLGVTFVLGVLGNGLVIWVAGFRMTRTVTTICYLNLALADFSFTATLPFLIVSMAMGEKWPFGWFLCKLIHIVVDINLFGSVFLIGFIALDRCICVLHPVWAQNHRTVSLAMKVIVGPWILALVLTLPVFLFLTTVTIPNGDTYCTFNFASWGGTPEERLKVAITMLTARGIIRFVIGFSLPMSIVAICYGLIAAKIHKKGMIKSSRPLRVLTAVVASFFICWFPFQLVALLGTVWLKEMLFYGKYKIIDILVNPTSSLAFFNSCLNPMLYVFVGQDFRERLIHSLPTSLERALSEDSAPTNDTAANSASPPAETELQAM
Nature of the series: Calcium mobilization in HL60 FPR2 cells. It counts as cell-based. Conditions: calcium flux. How it is done: Culture filtrates of different bacterial strains (USA300, USA300ΔeapΔeapHIΔeapHII::ermB, S. epidermidis RN1457) were incubated with different amounts of neutrophils to investigate the potential of neutrophils to inactivate their PSM activity. Therefore, 100µl of sterile filtered overnight culture were incubated with 100µl neutrophils in RPMI at the indicated concentrations for six or 24 hours as described in the figure legends. After centrifugation, supernatants were collected and frozen at -20° until they were further analyzed for their FPR2 activity, for truncated PSM fragments and their cytotoxicity.
HL60 cells stably transfected with human FPR2/ALX (HL60-FPR2) have been described recently ([23]). These cells were grown in RPMI medium (Biochrom) supplemented with 10% FCS (Sigma-Aldrich), 20 mM Hepes (Biochrom), penicillin (100 units/ml), streptomycin (100 µg/ml) (Gibco), 1 × Glutamax (Gibco) and in the presence of G418 (Biochrom) at a final concentration of 1 mg/ml. […] Calcium fluxes were analyzed by stimulating cells loaded with Fluo-3-AM (Molecular Probes) and monitoring fluorescence with a FACSCalibur or a FACS Fortessa flow cytometer (BD Biosciences) as described recently ([23]).

Series [1] has as its target T2, human neutrophil elastase (Homo sapiens, UniProt P08246).
T2 construct: purchased PanReac AppliChem
T2 sequence (P08246 30-267): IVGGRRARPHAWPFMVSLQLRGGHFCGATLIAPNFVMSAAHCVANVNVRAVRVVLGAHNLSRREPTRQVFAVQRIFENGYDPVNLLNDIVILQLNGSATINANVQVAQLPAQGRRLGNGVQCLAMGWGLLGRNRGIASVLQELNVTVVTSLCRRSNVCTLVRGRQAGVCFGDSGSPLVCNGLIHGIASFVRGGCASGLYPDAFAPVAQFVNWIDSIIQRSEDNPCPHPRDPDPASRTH
Nature of the series: Prevention of NSP-mediated PSMα3 degradation by NSP inhibitors (western blot). The series is classed as biochemical. The note with it: 100µM PMSF, one hour at 37°C, text: pre-incubation of neutrophils, Supplementary Figure 1: digestion with NE. How it is done: (§1) PSMα3 (1,3µg) was digested either with 0,15 unit’s NE, CG or PR3 for one hour at 37°C with or without addition of PMSF (100µM) or 2µg Eap, 4µgEapH1 or 4µg EapH2. For digestion of PSMα3 by neutrophils, 25µl PSMα3 (20µM) was incubated for one hour with or without 5x10^6 neutrophils in 100µl RPMI at 37°C, 5% CO2. After centrifugation 10µl of the supernatant was used for western Blot analysis. After denaturation of the samples for two minutes at 85°C and addition of Tricine Sample Buffer, samples were subjected to a 10-20%- Tricine SDS gradient gel (Thermo Fischer Scientific). Then, proteins were blotted to a nitrocellulose membrane and blocked overnight using blocking buffer. After washing PSM α3 was visualized using rabbit anti-PSMα3 serum (kindly provided by Michael Otto) at a concentration of 1:10000 (for one hour, 4°C, under agitation). After washing with wash buffer (Tris buffered saline, BioRad +0,05% Tween, Merck), the secondary antibody goat anti rabbit IgG (Dylight 800 conjugate (LI-COR #2557) was added (diluted 1:10000 in blocking buffer) and incubated for one hour at 4°C. Protein bands were detected with the Licor Odyssey CLx.

The next series has as its system human neutrophils. Nature of the series: CD11b expression on neutrophils. It counts as cell-based. The note with it: USA300 culture filtrate 0,36% in RPMI, treated 24 hours with neutrophils +/- PMSF; neutrophils stimulated 60 min 37°C; flow cytometry. How it is done:
Sterile filtered culture filtrates of S. aureus USA300 (0,36% in RPMI) or TSB were incubated for 24 hours either with or without addition of the NSP inhibitor PMSF and neutrophils. Activation of human neutrophils was determined by measuring surface expression of CD11b. Neutrophils were incubated with the treated culture filtrates at 37°C with rotation for 60 min as described elsewhere ([24]). Cells were stained with a PE-labeled antibody against CD11b (mAb 44; BD Biosciences) or isotype control antibody (BD Biosciences) as described previously. Then, neutrophils were analyzed on a FACS Fortessa cytometer (BD Biosciences)

The target in series [2] is T2, human neutrophil elastase. The experiment in a line: Degradation of PSMα3 by NE (western blot). The series is classed as in vitro ADME. The note with it: PSMα3 1,3µg, 0,15 units NE, one hour at 37°C, three independent experiments. The method, then:
(§2) The three different human serine proteases human NE, PR3, 0.01 U and CG, 0.01 U were investigated and their potential to inactivate PSMα3 was compared. […] 28 ng/ml NE (stock: 1.4 mg/ml) were incubated for one hour at 37°C in RPMI plus 0.05% HSA to inactivate 500 nM PSMα3 in a total volume of 120 μl (0.012 μl NE in 60 μl RPMI). To avoid further degradation of PSMα3, all stimulations were prepared freshly and analyzed in different assays on the same day.
as §1, with “Then, proteins were blotted to a nitrocellulose membrane and blocked overnight using blocking buffer. After washing PSM α3 was visualized using rabbit anti-PSMα3 serum (kindly provided by Michael Otto) at a concentration of 1:10000 (for one hour, 4°C, under agitation).” left out

Series [3] concerns the target T3, human neutrophil cathepsin G (Homo sapiens, UniProt P08311).
T3 construct: purchased MyBioSource
T3 sequence (P08311 21-255): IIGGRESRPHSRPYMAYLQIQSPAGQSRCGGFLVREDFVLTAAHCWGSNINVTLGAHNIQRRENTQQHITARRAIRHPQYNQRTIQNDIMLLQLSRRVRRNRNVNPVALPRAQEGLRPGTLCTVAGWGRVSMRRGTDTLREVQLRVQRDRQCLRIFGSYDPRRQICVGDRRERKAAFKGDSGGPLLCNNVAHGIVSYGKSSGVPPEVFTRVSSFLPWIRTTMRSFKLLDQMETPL
Nature of the series: Degradation of PSMα3 by CG (western blot). The series is classed as in vitro ADME. The note with it: PSMα3 1,3µg, 0,15 units CG, one hour at 37°C, three independent experiments. The method, then:
as §2
as §1, with “Then, proteins were blotted to a nitrocellulose membrane and blocked overnight using blocking buffer. After washing PSM α3 was visualized using rabbit anti-PSMα3 serum (kindly provided by Michael Otto) at a concentration of 1:10000 (for one hour, 4°C, under agitation).” left out

The target of series [4] is T4, human neutrophil proteinase 3 (Homo sapiens, UniProt P24158).
T4 construct: purchased MyBioSource
T4 sequence (P24158 28-256): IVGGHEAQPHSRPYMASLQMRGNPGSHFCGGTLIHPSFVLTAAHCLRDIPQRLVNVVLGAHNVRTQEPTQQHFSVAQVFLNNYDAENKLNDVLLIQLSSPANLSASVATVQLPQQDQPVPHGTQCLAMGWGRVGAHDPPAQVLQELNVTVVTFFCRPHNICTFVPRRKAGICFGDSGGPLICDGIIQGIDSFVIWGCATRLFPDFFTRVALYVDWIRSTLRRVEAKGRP
The experiment in a line: Degradation of PSMα3 by PR3 (western blot). The series is classed as in vitro ADME. The note with it: PSMα3 1,3µg, 0,15 units PR3, one hour at 37°C, three independent experiments. How it is done: as §2
as §1, with “Then, proteins were blotted to a nitrocellulose membrane and blocked overnight using blocking buffer. After washing PSM α3 was visualized using rabbit anti-PSMα3 serum (kindly provided by Michael Otto) at a concentration of 1:10000 (for one hour, 4°C, under agitation).” left out

Another series concerns HL60 cells. Nature of the series: Cytotoxicity assay (LDH release), HL60 cells. The series is classed as cell-based, human. Conditions: three independent experiments. The method, then: 100 μl of synthetic PSMs, protease degraded PSMs or filtered bacterial culture supernatants were added to wells of a 96-well round bottom culture plate containing 10^5 neutrophils in 100 μl and plates were incubated at 37°C for up to 3 h. At the desired times, the stimulation was stopped by centrifugation for 10 minutes at 300 x g at RT, and cell lysis was determined by measuring the release of lactate dehydrogenase (LDH) using the Cytotoxicity Detection Kit (Roche Applied Sciences), according to the manufacturer’s instructions. As control, 100 μl TSB was diluted in RPMI without phenol red, mixed with human neutrophils (10^6) and tested for its ability to cause cell lysis. As control, lysis of HL60 cells was tested in pure RPMI/TSB without phenol red.

On to `O=S(=O)(F)Cc1ccccc1` [PMSF, Phenylmethylsulfonyl fluoride], for which the “PSM-mediated FPR2 activation by culture filtrates of PSM producing S. aureus in the simultaneous presence of neutrophils and inhibitor” value on human FPR2/ALX (HL60-FPR2 cells) was “rescued PSM-mediated FPR2 activation”. Further, on human FPR2/ALX (three independent experiments), the “PSMα3-mediated activation of FPR2 in HL60-FPR2 cells after neutrophil treatment with PMSF pre-incubation” value is listed as “maintained the activation of FPR2”. Moreover, in series [1], the “effect of NSP inhibitor PMSF on degradation of PSMα3” value was “prevents degradation of PSMα3”. Moreover, the “CD11b surface expression on neutrophils incubated with culture filtrates of a PSM-producing S. aureus strain in the presence of inhibitor” value in the series on human neutrophils is “upregulation of CD11b”.
As to `CSCC[C@H](NC=O)C(=O)N[C@@H](CCC(=O)O)C(=O)N[C@@H](Cc1ccccc1)C(=O)N[C@H](C(=O)N[C@@H](C)C(=O)N[C@@H](CCCCN)C(=O)N[C@@H](CC(C)C)C(=O)N[C@@H](Cc1ccccc1)C(=O)N[C@@H](CCCCN)C(=O)N[C@@H](Cc1ccccc1)C(=O)N[C@@H](Cc1ccccc1)C(=O)N[C@@H](CCCCN)C(=O)N[C@@H](CC(=O)O)C(=O)N[C@@H](CC(C)C)C(=O)N[C@@H](CC(C)C)C(=O)NCC(=O)N[C@@H](CCCCN)C(=O)N[C@@H](Cc1ccccc1)C(=O)N[C@@H](CC(C)C)C(=O)NCC(=O)N[C@@H](CC(N)=O)C(=O)N[C@@H](CC(N)=O)C(=O)O)C(C)C` [PSMα3], the “degradation of PSMα3 upon incubation with NE” value in series [2] is recorded as “readily degraded”. Besides, the “degradation of PSMα3 upon incubation with CG” value in series [3] is reported as “readily degraded”. The “degradation of PSMα3 upon incubation with PR3” value in series [4] is “readily degraded”. Moreover, the “cytotoxicity of PSMα3 toward HL60 cells after treatment with NE, CG and PR3” value with HL60 cells is given as “abolished”.
